Counter-ions that a name gives are not always drawn. Like-named read-outs stand apart in the source and are kept apart here.
Columns and labels:
Bcl-xL-Beclin 1 complex [1] = molecular target: T1, Bcl-xL-Beclin 1 complex (Homo sapiens, UniProt Q07817); assay: FP-based high-throughput screening, primary screen; assay type: binding; conditions: first screen; 40 μM compound, 2.5 μM Bcl-xL, 400 nM 20-mer
T1 construct: made in house
From the text: Next, we optimized the FP competitive binding assay in a 384-well microplate format and carried out a small-scale HTS using a small library, which contains 6580 compounds from Prestwick, Microsource and our in-house CMLD library. Then, the FP assay was optimized and applied in screening the larger Chembridge library consisting of 43736 compounds. HTS cascades are shown in Supplementary Figure 1A–1B. […] All chemical structures can be found on the PubChem website (http://pubchem.ncbi.nlm.nih.gov/).
(§1) Then the plates were read by Envision (Perkin Elmer, Waltham, MA). […] The hits were selected from library stocks and reconfirmed in a concentration response FP assay (6 doses ranging from 5 μM to 160 μM or 8 doses ranging from 0.5 μM to 60 μM).

Bcl-xL-Beclin 1 complex [2] = molecular target: T1, Bcl-xL-Beclin 1 complex; assay: Concentration response FP reconfirmation of HTS hits; assay type: binding; conditions: for inhibition at 5 µM: read-out: Dose-response (% Inhibition) 5 μM; for inhibition at 10 µM: read-out: Dose-response (% Inhibition) 10 μM; for inhibition at 20 µM: read-out: Dose-response (% Inhibition) 20 μM; for inhibition at 40 µM: read-out: Dose-response (% Inhibition) 40 μM; for inhibition at 80 µM: read-out: Dose-response (% Inhibition) 80 μM; for inhibition at 160 µM: read-out: Dose-response (% Inhibition) 160 μM
Method: as §1

T1 sequence (Q07817 whole entry, one chain of several): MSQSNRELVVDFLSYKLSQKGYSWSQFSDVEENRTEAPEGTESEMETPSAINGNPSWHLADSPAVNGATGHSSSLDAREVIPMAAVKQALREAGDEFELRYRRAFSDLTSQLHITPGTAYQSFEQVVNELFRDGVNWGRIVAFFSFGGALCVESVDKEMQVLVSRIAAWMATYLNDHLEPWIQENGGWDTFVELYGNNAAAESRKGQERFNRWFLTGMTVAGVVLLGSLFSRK

SMILES | Primary Screen mP (Bcl-xL-Beclin 1 complex [1]) | inhibition at 40 µM (Bcl-xL-Beclin 1 complex [1]) | inhibition at 5 µM (Bcl-xL-Beclin 1 complex [2]; 5 μM, hits of first screen) | inhibition at 10 µM (Bcl-xL-Beclin 1 complex [2]; 10 μM, hits of first screen) | inhibition at 20 µM (Bcl-xL-Beclin 1 complex [2]; 20 μM, hits of first screen) | inhibition at 40 µM (Bcl-xL-Beclin 1 complex [2]; 40 μM, hits of first screen) | inhibition at 80 µM (Bcl-xL-Beclin 1 complex [2]; 80 μM, hits of first screen) | inhibition at 160 µM (Bcl-xL-Beclin 1 complex [2]; 160 μM, hits of first screen) | inhibition at 5 µM (Bcl-xL-Beclin 1 complex [2]) | inhibition at 10 µM (Bcl-xL-Beclin 1 complex [2]) | inhibition at 20 µM (Bcl-xL-Beclin 1 complex [2]) | inhibition at 40 µM (Bcl-xL-Beclin 1 complex [2]) | inhibition at 80 µM (Bcl-xL-Beclin 1 complex [2]) | inhibition at 160 µM (Bcl-xL-Beclin 1 complex [2])
O=C1C=C2CC3(O)COc4cc(O)ccc4C3=C2C=C1O (stereo not drawn) [Compound A01, BRAZILEIN] | 96.0 mP | 31% | 8% | 16.9% | 23% | 35.7% | 57.8% | 74.8% | – | – | – | – | – | –
CC(C)=CCCC1(C)C=Cc2c(O)c3c(c(CC=C(C)C)c2O1)OC12C(=CCCC1C(C)(C)O[C@@]2(C/C=C(\C)C(=O)O)C(=O)O)C3=O (stereo partly drawn) [Compound A02, GARCINOLIC ACID] | 124.0 mP | 11.8% | 2.5% | 3.3% | 3.6% | 7.5% | 18.1% | 22% | – | – | – | – | – | –
O=C1c2cccc(O)c2C(=O)c2c(O)cccc21 [Compound A03, DANTHRON] | 126.4 mP | 9.62% | -1.2% | 1.4% | 4.8% | 4.9% | 8.7% | 19.7% | – | – | – | – | – | –
CCCCCc1c2c(cc(O)c1C(=O)O)OC(=O)c1c(cc(OC)cc1C(=O)CCCC)O2 [Compound A04, LOBARIC ACID] | 129.2 mP | 7.13% | 1.4% | 2.3% | 2% | 3.2% | 10.2% | 13.7% | – | – | – | – | – | –
C[n+]1cc2c3c(ccc2c2ccc4cc5c(cc4c21)OCO5)OCO3 [Compound A05, SANGUINARINE SULFATE] | 130.6 mP | 6.61% | – | – | – | – | – | – | -1.4% | -0.2% | 2% | 8.4% | 20.6% | 31.1%
CCCCC(CC)CCC(CC(C)C)OS(=O)(=O)O (stereo not drawn) [Compound A06, SODIUM TETRADECYL SULFATE] | 121.5 mP | 9.56% | -7.3% | -3.8% | -1% | 2.6% | 15.4% | 24.4% | – | – | – | – | – | –
CN(C)c1ccc(C(=C2C=CC(=[N+](C)C)C=C2)c2ccc(N(C)C)cc2)cc1 [Compound A08, GENTIAN VIOLET] | 123.0 mP | 11.7% | 1.9% | 3.7% | 5.8% | 6.6% | 21.2% | 22.7% | – | – | – | – | – | –
COC(=O)CC[C@@H](C)[C@H]1CC[C@H]2[C@@H]3[C@H](O)C[C@@H]4C[C@H](O)CC[C@]4(C)[C@H]3C[C@H](O)[C@]12C [Compound A09, CHOLIC ACID, METHYL ESTER] | 127.0 mP | 9.59% | 1.6% | 1.5% | 1.7% | 4.2% | 9.3% | 13.2% | – | – | – | – | – | –
COC(=O)Nc1nc2ccc(Sc3ccccc3)cc2[nH]1 [Compound A10, FENBENDAZOLE] | 128.0 mP | 8.47% | -3.4% | 2.3% | 0.2% | -0.1% | -0.4% | 8.8% | – | – | – | – | – | –
O=C1c2c(O)ccc(O)c2C(=O)c2c(NCCNCCO)ccc(NCCNCCO)c21 [Compound A11, MITOXANTRONE HYDROCHLORIDE] | 99.8 mP | 26.3% | -2.2% | 4.3% | 11.2% | 19.5% | 32.9% | 32.2% | – | – | – | – | – | –
CC[n+]1c(-c2ccccc2)c2cc(N)ccc2c2ccc(N)cc21 [Compound A12, HOMIDIUM BROMIDE] | 113.8 mP | 15.3% | – | – | – | – | – | – | 3.5% | 5.5% | 7.2% | 12% | 26.1% | 39.2%
O=C(O)C1=CC(=C(c2ccc(O)c(C(=O)O)c2)c2ccc(O)c(C(=O)O)c2)C=CC1=O [Compound A14, AURIN TRICARBOXYLIC ACID] | 129.7 mP | 6.76% | 0.7% | 2% | 3.8% | 4.8% | 8.1% | 8.6% | – | – | – | – | – | –
CCCc1nc2c(C)cc(-c3nc4ccccc4n3C)cc2n1Cc1ccc(-c2ccccc2C(=O)O)cc1 [Compound A16] | 125.4 mP | 5.2% | -1.1% | -0.6% | -0.1% | 1.6% | 6.3% | 11.1% | – | – | – | – | – | –
CCCCCCCCCc1ccc(OCCOCCOCCOCCOCCOCCOCCOCCOCCO)cc1 [Compound A17, NONOXYNOL-9] | 127.2 mP | 9.04% | – | – | – | – | – | – | -0.3% | 6.2% | 5.9% | 5.3% | 12.9% | 11.1%
CN1C[C@H](C(=O)N[C@]2(C)O[C@@]3(O)[C@@H]4CCCN4C(=O)[C@H](Cc4ccccc4)N3C2=O)C=C2c3cccc4[nH]cc(c34)C[C@H]21 [Compound A18, ERGOTAMINE TARTRATE] | 122.3 mP | 11% | – | – | – | – | – | – | -0.2% | 0.3% | 3.3% | 5.8% | 15.6% | 25.6%
